As a reminder, the inhibition is the drop in the measured response relative to a control, in per cent. The IC50 is the concentration that inhibits the measured activity by half.

Assay [1] addresses T1, Protein arginine N-methyltransferase 1 (Homo sapiens, UniProt Q99873). Kind of assay: Inhibition of recombinant human N-terminal GST-tagged PRMT1 (2 to end residues) expressed in baculovirus infected Sf9 insect cells at 9 uM using biotinylated histone H4 peptide as substrate preincubated for 15 mins followed by substrate/[3H]-SAM addition measured after 60 mins by microbeta liquid scintillation counting analysis.
Target sequence in this assay (Q99873 whole entry, looked up): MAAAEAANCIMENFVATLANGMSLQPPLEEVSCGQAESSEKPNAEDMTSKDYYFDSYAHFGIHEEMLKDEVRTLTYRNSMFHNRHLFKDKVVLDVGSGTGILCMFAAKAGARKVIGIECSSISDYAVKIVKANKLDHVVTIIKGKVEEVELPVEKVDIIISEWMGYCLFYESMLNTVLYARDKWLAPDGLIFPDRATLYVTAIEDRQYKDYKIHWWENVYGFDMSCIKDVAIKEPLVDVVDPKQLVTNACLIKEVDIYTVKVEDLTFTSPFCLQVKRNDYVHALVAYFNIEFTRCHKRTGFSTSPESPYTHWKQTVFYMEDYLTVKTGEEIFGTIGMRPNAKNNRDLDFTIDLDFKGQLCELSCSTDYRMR

The next assay concerns Daoy. Kind of assay: Cytotoxicity against human DaOY cells assessed as reduction in cell viability after 72 hrs by CellTiter-blue assay. It counts as functional, cell-based. On the technique in general: Resazurin is reduced to fluorescent resorufin, in cell work by metabolically active cells.
Assay [2] addresses T1, Protein arginine N-methyltransferase 1. As to the kind of experiment: Inhibition of recombinant human N-terminal GST-tagged PRMT1 (2 to end residues) expressed in baculovirus infected Sf9 insect cells using biotinylated histone H4 peptide as substrate preincubated for 15 mins followed by substrate/[3H]-SAM addition measured after 60 mins by microbeta liquid scintillation counting analysis.
Target sequence in this assay (Q99873 whole entry): as the sequence (Q99873 whole entry, looked up) above

The next assay concerns MCF7. Kind of assay: Cytotoxicity against human MCF7 cells assessed as reduction in cell viability after 72 hrs by CellTiter-blue assay. It counts as functional, cell-based. Conditions: MCF7, 72 h.
A further assay deals with HepG2. Kind of assay: Cytotoxicity against human HepG2 cells assessed as reduction in cell viability after 72 hrs by CellTiter-blue assay. It counts as functional, cell-based. Conditions: HepG2, 72 h.
Assay [3] has as its target T1, Protein arginine N-methyltransferase 1. Kind of assay: Potency index, ratio of AMI-1 IC50 to compound IC50 for recombinant human N-terminal GST-tagged PRMT1 (2 to end residues) expressed in baculovirus infected Sf9 insect cells.
Target sequence in this assay (Q99873 whole entry, looked up): as above

As for `CNCCN(C)Cc1ccc(-c2cccc(C(=O)OC)c2)o1`, the inhibition in assay [1] stood at 51%. For the same molecule, the IC50 in the assay on Daoy was 71.2 µM; in assay [2], 14 µM; with MCF7 it was more than 100 µM; in the assay with HepG2, 74.1 µM. On to `FC(F)(F)c1cccc(Cn2nnnc2N2CCNCC2)c1`, for which the inhibition in assay [1] was 1%. As to `CNCCN(C)Cc1ccc(-c2ccc(OC(F)(F)F)cc2)o1`, the inhibition in assay [1] turned out to be 40%. Also, the IC50 in the assay with Daoy was found to be 24.3 µM; in assay [2], 17 µM; in the assay with MCF7, 30.6 µM; with HepG2, 24.2 µM.

Take `CN(CCN)Cc1ccc(-c2cccc(OC(F)(F)F)c2)o1`: in assay [1], the inhibition is 46%. Further, the IC50 is more than 100 µM in the assay with Daoy, 14 µM in assay [2], more than 100 µM in the assay on MCF7 and more than 100 µM in the assay on HepG2.

As for `CNCCN(C)Cc1ccc(-c2ccc(OC)cc2)o1`, in assay [1], the inhibition is 38%. On the same count and under the same terms, the result for `COc1ccc(-c2ccc(CN(C)CCN)o2)cc1` reads 25%; that for `CN(CCN)Cc1ccc(-c2ccc(OC(F)(F)F)cc2)o1`, 25%. `CNCCN(C)c1nnnn1Cc1cccc(C(F)(F)F)c1`: the inhibition in assay [1] is 8%. Still for that read-out and setting: the result for `CN(CCN)Cc1ccc(-c2cccc(C(F)(F)F)c2)o1` reads 31%; that for `CNCCN(C)Cc1ccc(-c2cccc(C#N)c2)o1`, 33%. Same read-out and setting: the result for `CNCCN(C)Cc1ccc(-c2ccc(C#N)cc2)o1` reads 35%. As to `CNCCN(C)Cc1ccc(-c2ccc(C(F)(F)F)cc2)o1`, the inhibition in assay [1] stood at 43%. For the same molecule, the IC50 in the assay with Daoy came to 72.8 µM; in assay [2] it was 8.2 µM; with MCF7, 49.8 µM; in the assay with HepG2, 36.4 µM. Further, the Ratio IC50 in assay [3] stood at 3. For `Nc1ncnc2c1ncn2[C@@H]1O[C@H](CSCC[C@H](N)C(=O)O)[C@@H](O)[C@H]1O`, the inhibition in assay [1] came out at 90%.

With `COc1cccc(-c2ccc(CN(C)CCN)o2)c1`, in assay [1], the inhibition worked out at 24%.

Turning to `CNCCN(C)c1nnnn1Cc1ccc(C(F)(F)F)cc1`, the inhibition in assay [1] is 2%. Still for that read-out and setting: the result for `CNCCN(C)c1nnnn1Cc1cccc(OC(F)(F)F)c1` reads 12%; that for `CNCCN(C)c1nnnn1Cc1ccccc1C(F)(F)F`, 13%. On the same count and under the same terms, the value for `CN(CCN)Cc1ccc(-c2cccc(C#N)c2)o1` was 38%; that for `CNCCN(C)Cc1ccc(-c2cccc(OC)c2)o1` was 37%. The same measure, in the same setting: the value for `CN(CCN)Cc1ccc(-c2ccc(C(F)(F)F)cc2)o1` was 37%. As to `CNCCN(C)Cc1ccc(-c2cccc(C(F)(F)F)c2)o1`, the inhibition in assay [1] was found to be 43%. For the same molecule, the IC50 with Daoy turned out to be 69.8 µM; in assay [2] it was 14 µM; in the assay with MCF7, 61.1 µM; in the assay with HepG2, 34.5 µM.

With `CNCCN(C)c1nnnn1Cc1ccccc1OC(F)(F)F`, the inhibition in assay [1] was 9%. In the case of `O=C(Nc1ccc2c(O)cc(S(=O)(=O)O)cc2c1)Nc1ccc2c(O)cc(S(=O)(=O)O)cc2c1`, the IC50 with Daoy was more than 100 µM; in the assay with MCF7 it was more than 100 µM; with HepG2, 51.2 µM. Turning to `CNCCN(C)Cc1ccc(-c2cccc(OC(F)(F)F)c2)o1`, the inhibition in assay [1] stood at 41%. Further, the IC50 was found to be 23.6 µM with Daoy, 14 µM in assay [2], 64.4 µM in the assay with MCF7 and 23 µM in the assay with HepG2.

For `CNCCN(C)c1nnnn1Cc1ccc(OC(F)(F)F)cc1`, in assay [1], the inhibition was 5%.

In the case of `CNCCN(C)c1nnnn1Cc1ccc(OC)cc1`, in assay [1], the inhibition turned out to be 0%.

As to `CNCCN(C)c1nnnn1Cc1ccc(C#N)cc1`, the inhibition in assay [1] is 6%. `COC(=O)c1cccc(-c2ccc(CN(C)CCN)o2)c1`: in assay [1], the inhibition came to 38%. The same measure, in the same setting: the value for `COC(=O)c1ccc(-c2ccc(CN(C)CCN)o2)cc1` was 30%; that for `CNCCN(C)Cc1ccc(-c2ccc(C(=O)OC)cc2)o1` was 32%.

(Values after ChEMBL document CHEMBL4043236, “Design and synthesis of novel PRMT1 inhibitors and investigation of their binding preferences using molecular modelling” (Bioorg Med Chem Lett, 2017).)
